Results from PubChem BioAssay AID2060901 (Molecular Pharmacology Branch, DTP, NCI, 2025).
pIC50: −log10 of the molar value. “And” between values parts separate entries of the source, which are not always exact repeats. Identical values can stand only once. Values belong to the molecule of their own block, whether it stands above or below them.

System: 422866-222-R5-J1-PDC complex spheroids viability
Experiment: Anticancer human tumor 422866-222-R5-J1-PDC patient-derived pancreatic adenocarcinoma cell line growth inhibition [RAS]
Conditions: for viability, T/C: stronger effect = lower value
Source text: RAS pathway inhibitors in Combinations in Complex Spheroids
A high-throughput screen of multi-cell type tumor spheroids was designed to identify active combinations of RAS pathway inhibitors and targeted small molecules. Complex spheroids include a stromal component modeled by human endothelial cells (HUVEC) and fibroblasts modeled by human mesenchymal stem cells (MSCs). The concentration ranges selected for each drug and investigational agent were based upon clinically achievable concentrations if the clinical Cmax of the agent was known.
Compounds. The drugs and investigational agents: abemaciclib (NSC768073), cobimetinib (NSC768068), divarasib (GDC6063, NSC841802), docetaxel (NSC628503), GDC-1971 (RLY-1971, NSC841576), gemcitabine (NSC613327), inavolisib (NSC800729), ipatasertib (NSC767898), KB-0742 (NSC834161), MRTX-1133 (NSC836407), osimertinib (NSC779217), RMC-4630 (NSC839698), RMC-6236 (NSC851965), RMC-6291 (NSC852671), Ro-3306 (NSC812927), sapanisertib (NSC764658), SN-38 (NSC673596), staurosporine (NSC755774), SY5609 (NSC837396), and tovorafenib (DAY101, NSC766906), were obtained from the National Cancer Institute (NCI) Developmental Therapeutics Program Chemical Repository. The FDA-approved anticancer drug set is available from the NCI Developmental Therapeutics Program. […] The stock solutions were prepared in dimethyl sulfoxide (DMSO, Sigma-Aldrich, St. Louis, MO, cat. D2650) at 800-fold the tested concentration and stored at -70 degrees C prior to their use. All drugs and investigational agents were tested over a range starting from a high concentration at or near the clinical Cmax and decreasing in half-log increments. If the clinical Cmax for an agent had not been determined, the highest concentration tested was 10 microM.
Cell Culture. All cells were maintained in an incubator at 37 degrees C and 5% CO2 with 95% humidity. The PDC lines were cultured according to standard operating procedures established by the NCI PDMR. All PDCs were thawed and cultured in Matrigel-coated flasks prepared with a working solution of 1X Ham's F-12 nutrient mix, without supplementation (Invitrogen, Waltham, MA, cat. 11765054), 100 U/mL penicillin-streptomycin (Invitrogen, cat. 15140122), and 2.5% Matrigel (Corning Inc., Corning, NY, cat. 354248) for the first three passages. The 362531-283-R-J2-PDC and 782815-120-R-J1-PDC lines were cultured in 6C/Colon 1B media, which includes advanced DMEM/F-12 (Thermo Fisher Scientific, cat. 12634028), 10 mM HEPES (Thermo Fisher Scientific, cat. 15630080), 1X GlutaMAX supplement (Thermo Fisher Scientific, cat. 35050061), 0.1 mg/mL primocin (InvivoGen, San Diego, CA, cat. ant-pm-2), 10% defined fetal bovine serum, heat inactivated (HyClone Laboratories Inc., Logan, UT, cat. SH30070.03HI), 50% L-WRN conditioned media (ATCC, cat. CRL-3276), 1.25 mM N-Acetyl-L-cysteine (Sigma-Aldrich, cat. A9165), 10 mM nicotinamide (Sigma-Aldrich, cat. N0636), 1X B-27 supplement (Thermo Fisher Scientific, cat. 17504044), 1X N-2 supplement (Thermo Fisher Scientific, cat. 17502048), 50 ng/mL human EGF (Thermo Fisher Scientific, cat. PHG0311), and 10 microM Y-27632 dihydrochloride (Tocris Bioscience, cat. 1254). The K12877-001-R-J1-PDC line was cultured in 6I media, which includes all 6C/Colon 1B media plus 10 ng/mL human FGF-10 (PeproTech, cat. 100-26), 1 ng/mL human FGF-2 (PeproTech, cat. 100-18B), 1 µM prostaglandin E2 (Tocris Bioscience, cat. 2296), […] hydrocortisone (Sigma-Aldrich, cat. H4001), and […] bovine insulin (Sigma-Aldrich, cat. I6634). The K86415-001-R-J1-PDC line was cultured in 6D media, which includes all 6C/Colon 1B media components minus the L-WRN conditioned media. The 485176-168-R4-J1-PDC was cultured in PANC media, which includes all 6C/Colon 1B media plus 100 ng/mL human FGF-10 (PeproTech, cat. 100-26), 500 nM SB-431542 (Selleckchem, cat. S1067), and 10 nM gastrin (Tocris Bioscience, cat. 3006). […]
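Note: spheroids exposed to compounds for 7 days.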
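Throughout, for viability, T/C: 100% = DMSO vehicle control viability.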

- IC50 (compound alone, run of 06/10/2024): 1.11 µM [middle of 8 runs]
SMILES: C#Cc1c(F)ccc2cc(O)cc(-c3ncc4c(N5CC6CCC(C5)N6)nc(OCC56CCCN5CC(F)C6)nc4c3F)c12 (stereo not drawn)
- viability, T/C (compound 0.0316 µM): 98.7% [middle of 8 runs]
- viability, T/C (compound 0.316 µM): 67.4% [middle of 8 runs]
- viability, T/C (compound 1 µM): 51.8% [middle of 8 runs]
- viability, T/C (compound 3.16 µM): 37.3% [middle of 8 runs]
- viability, T/C (compound 10 µM): 26.2% [middle of 8 runs]

- pIC50 (curve of compound): < 5.00
SMILES: CC(C)NCC(C(=O)N1CCN(c2ncnc3c2C(C)CC3O)CC1)c1ccc(Cl)cc1 (stereo not drawn)
- viability, T/C (compound 0.0316 µM): 92.2% [middle of 4 runs]
- viability, T/C (compound 0.1 µM): 93.6% [middle of 4 runs]
- viability, T/C (compound 10 µM): 133% (2×) and 147% and 160%

- pIC50 (curve of compound): 5.05 and < 5.00 and 5.03
SMILES: CC1(O)CCCC1n1c(=O)c(C(F)F)cc2cnc(NC3CCN(S(C)(=O)=O)CC3)nc21 (stereo not drawn)
- viability, T/C (compound 0.0316 µM): 82.7% [middle of 4 runs]
- viability, T/C (compound 0.316 µM): 85.5% [middle of 4 runs]
- viability, T/C (compound 1 µM): 91.1% [middle of 4 runs]
- viability, T/C (compound 10 µM): 58.4% [middle of 4 runs]

- IC50 (curve of compound): 2.36 µM [middle of 4 runs]
SMILES: CCC(CC)c1cc(NC2CCC(N)C2)n2nccc2n1 (stereo not drawn)
- viability, T/C (compound 0.0316 µM): 99.2% [middle of 4 runs]
- viability, T/C (compound 0.316 µM): 116% [middle of 4 runs]
- viability, T/C (compound 1 µM): 106% [middle of 4 runs]
- viability, T/C (compound 3.16 µM): 29.1% [middle of 4 runs]
- viability, T/C (compound 10 µM): 37.6% [middle of 4 runs]

More lines, now with the values behind:

SMILES: CC(=O)OC12COC1CC(O)C1(C)C(=O)C(O)C3=C(C)C(OC(=O)C(O)C(NC(=O)OC(C)(C)C)c4ccccc4)CC(O)(C(OC(=O)c4ccccc4)C21)C3(C)C (stereo not drawn)
- viability, T/C (compound 0.0316 µM): 60% [middle of 4 runs]
- viability, T/C (compound 0.1 µM): 71.8% [middle of 4 runs]
- viability, T/C (compound 0.316 µM): 71.4% [middle of 4 runs]
- viability, T/C (compound 1 µM): 78.2% [middle of 4 runs]
- viability, T/C (compound 10 µM): 77.4% [middle of 4 runs]
- pIC50 (curve of compound): < 5.00

SMILES: CC(Nc1ccc2c(c1)OCCn1cc(N3C(=O)OCC3C(F)F)nc1-2)C(N)=O (stereo not drawn)
- viability, T/C (compound 0.0316 µM): 75.3% [middle of 4 runs]
- viability, T/C (compound 0.1 µM): 53.4% [middle of 4 runs]
- viability, T/C (compound 0.316 µM): 42.6% [middle of 4 runs]
- viability, T/C (compound 1 µM): 39.3% [middle of 4 runs]
- viability, T/C (compound 10 µM): 26.1% and 23.8% and 27% (2×)

SMILES: C[C@@H](NC(=O)c1ncnc(N)c1Cl)c1ncc(C(=O)Nc2cc(C(F)(F)F)c(Cl)cn2)s1
- viability, T/C (compound 0.0316 µM): 131% and 103% (2×) and 113%
- viability, T/C (compound 0.1 µM): 124% and 116% (2×) and 104%
- viability, T/C (compound 0.316 µM): 119% [middle of 4 runs]
- viability, T/C (compound 1 µM): 118% [middle of 4 runs]
- viability, T/C (compound 3.16 µM): 104% (2×) and 83.4% and 92.5%
- viability, T/C (compound 10 µM): 76.6% [middle of 4 runs]
- pIC50 (curve of compound): < 5.00

SMILES: Cc1nc(N2CCC3(CC2)COC(C)C3N)c(CO)nc1Sc1ccnc(N)c1Cl (stereo not drawn)
- viability, T/C (compound 0.1 µM): 65% [middle of 4 runs]
- viability, T/C (compound 0.316 µM): 51% [middle of 4 runs]
- viability, T/C (compound 1 µM): 52.8% [middle of 4 runs]
- viability, T/C (compound 3.16 µM): 41.1% [middle of 4 runs]
- viability, T/C (compound 10 µM): 43.5% [middle of 4 runs]

SMILES: NC1c2ccccc2OC12CCN(c1cnc3c(N4CCCc5ncccc54)n[nH]c3n1)CC2 (stereo not drawn)
- viability, T/C (compound 0.0316 µM): 51.6% [middle of 4 runs]
- viability, T/C (compound 0.1 µM): 45.3% [middle of 4 runs]
- viability, T/C (compound 0.316 µM): 40.2% [middle of 4 runs]
- viability, T/C (compound 1 µM): 40% [middle of 4 runs]
- viability, T/C (compound 3.16 µM): 36.7% [middle of 4 runs]
- viability, T/C (compound 10 µM): 33.8% [middle of 4 runs]
- pIC50 (curve of compound): 6.54 and > 7.50

SMILES: C=CC(=O)Nc1cc(Nc2nccc(-c3cn(C)c4ccccc34)n2)c(OC)cc1N(C)CCN(C)C + C#Cc1c(F)ccc2cc(O)cc(-c3ncc4c(N5CC6CCC(C5)N6)nc(OCC56CCCN5CC(F)C6)nc4c3F)c12
- pIC50 (curve of first compound, second compound 0.0316 µM): < 6.00
- pIC50 (curve of first compound, second compound 0.1 µM): < 6.00
- pIC50 (curve of first compound, second compound 0.316 µM): 7.03
- pIC50 (curve of first compound, second compound 1 µM): > 8.50
- pIC50 (curve of first compound, second compound 3.16 µM): > 8.50
- pIC50 (curve of first compound, second compound 10 µM): > 8.50
- viability, T/C (second compound 0.0316 µM, first compound 0.00316 µM): 83.7%
- viability, T/C (second compound 0.0316 µM, first compound 0.01 µM): 97.5%
- viability, T/C (second compound 0.0316 µM, first compound 0.0316 µM): 85.8%
- viability, T/C (second compound 0.0316 µM, first compound 0.1 µM): 74%
- viability, T/C (second compound 0.0316 µM, first compound 0.316 µM): 66%
- viability, T/C (second compound 0.0316 µM, first compound 1 µM): 57.7%
- viability, T/C (second compound 0.1 µM, first compound 0.00316 µM): 74.5%
- viability, T/C (second compound 0.1 µM, first compound 0.01 µM): 91.4%
- viability, T/C (second compound 0.1 µM, first compound 0.0316 µM): 68.9%
- viability, T/C (second compound 0.1 µM, first compound 0.1 µM): 58.2%
- viability, T/C (second compound 0.1 µM, first compound 0.316 µM): 62.6%
- viability, T/C (second compound 0.1 µM, first compound 1 µM): 50.2%
- viability, T/C (second compound 0.316 µM, first compound 0.00316 µM): 72.4%
- viability, T/C (second compound 0.316 µM, first compound 0.01 µM): 69.8%
- viability, T/C (second compound 0.316 µM, first compound 0.0316 µM): 47.7%
- viability, T/C (second compound 0.316 µM, first compound 0.1 µM): 56.5%
- viability, T/C (second compound 0.316 µM, first compound 0.316 µM): 42.2%
- viability, T/C (second compound 0.316 µM, first compound 1 µM): 40.2%
- viability, T/C (second compound 1 µM, first compound 0.00316 µM): 50.9%
- viability, T/C (second compound 1 µM, first compound 0.01 µM): 44.5%
- viability, T/C (second compound 1 µM, first compound 0.0316 µM): 34.1%
- viability, T/C (second compound 1 µM, first compound 0.1 µM): 35.9%
- viability, T/C (second compound 1 µM, first compound 0.316 µM): 33.8%
- viability, T/C (second compound 1 µM, first compound 1 µM): 31.6%
- viability, T/C (second compound 3.16 µM, first compound 0.00316 µM): 33.6%
- viability, T/C (second compound 3.16 µM, first compound 0.01 µM): 32.9%
- viability, T/C (second compound 3.16 µM, first compound 0.0316 µM): 27.6%
- viability, T/C (second compound 3.16 µM, first compound 0.1 µM): 23.7%
- viability, T/C (second compound 3.16 µM, first compound 0.316 µM): 26.4%
- viability, T/C (second compound 3.16 µM, first compound 1 µM): 22.4%
- viability, T/C (second compound 10 µM, first compound 0.00316 µM): 23.2%
- viability, T/C (second compound 10 µM, first compound 0.01 µM): 20.7%
- viability, T/C (second compound 10 µM, first compound 0.0316 µM): 22.2%
- viability, T/C (second compound 10 µM, first compound 0.1 µM): 22.1%
- viability, T/C (second compound 10 µM, first compound 0.316 µM): 19.9%
- viability, T/C (second compound 10 µM, first compound 1 µM): 19.6%
